Tests used:
Type in all cases: in vivo
barnyardgrass [1] = experiment: Test Example 2: herbicidal effects during the vegetation period under submerged conditions; settings: treatment during the vegetation period under submerged conditions; dose 2.52 g/a
In short: (§1)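 Barnyardgrass, bulrush and ducksalad were co-sown in alluvial soil flooded to 4 cm and grown in a greenhouse at 25 to 30° C. At the 1- or 2-leaf stage, water-diluted emulsifiable concentrates went onto the water surface at set doses (g/a). Herbicidal effect was scored three weeks later on a graded scale.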

ducksalad [2] = experiment: as above; settings: treatment during the vegetation period under submerged conditions; dose 2.52 g/a
In short: as §1

bulrush [3] = experiment: as above; settings: treatment during the vegetation period under submerged conditions; dose 2.52 g/a
In short: as §1

giant foxtail [4] = experiment: Test Example 3: herbicidal effects in soil treatment; settings: dose 6.3 g/a
In short: (§2)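 Seeds were sown in sterilized diluvial soil and covered with about 1.5 cm of soil. Compounds, formulated as emulsifiable concentrates and diluted with water, were sprayed evenly over the soil surface at set doses in g/a. Herbicidal effect was scored on a rating scale three weeks later.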

barnyardgrass [5] = experiment: as above; settings: dose 6.3 g/a
In short: as §2

redroot pigweed [6] = experiment: as above; settings: dose 6.3 g/a
In short: as §2

Italian ryegrass [7] = experiment: as above; settings: dose 6.3 g/a
In short: as §2

water foxtail [8] = experiment: as above; settings: dose 6.3 g/a
In short: as §2

common ragweed [9] = experiment: as above; settings: dose 6.3 g/a
In short: as §2

common lambsquater [10] = experiment: as above; settings: dose 6.3 g/a
In short: as §2

wild oat [11] = experiment: as above; settings: dose 6.3 g/a
In short: as §2

common chickweed [12] = experiment: as above; settings: dose 6.3 g/a
In short: as §2

large crabgrass [13] = experiment: as above; settings: dose 6.3 g/a
In short: as §2

giant foxtail [14] = experiment: Test Example 4: herbicidal effect in foliage treatment; settings: dose 6.3 g/a, three weeks after application
In short: (§3)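 Doses are given in grams per are of applied compound, sprayed as water-diluted emulsifiable concentrate onto foliage of 14-day-old plants grown at 25 to 30° C. Herbicidal activity was assessed visually on a rating scale after three weeks.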

barnyardgrass [15] = experiment: as above; settings: dose 6.3 g/a, three weeks after application
In short: as §3

redroot pigweed [16] = experiment: as above; settings: dose 6.3 g/a, three weeks after application
In short: as §3

Italian ryegrass [17] = experiment: as above; settings: dose 6.3 g/a, three weeks after application
In short: as §3

water foxtail [18] = experiment: as above; settings: dose 6.3 g/a, three weeks after application
In short: as §3

common ragweed [19] = experiment: as above; settings: dose 6.3 g/a, three weeks after application
In short: as §3

common lambsquater [20] = experiment: as above; settings: dose 6.3 g/a, three weeks after application
In short: as §3

wild oat [21] = experiment: as above; settings: dose 6.3 g/a, three weeks after application
In short: as §3

common chickweed [22] = experiment: as above; settings: dose 6.3 g/a, three weeks after application
In short: as §3

beadstraw = experiment: as above; settings: dose 6.3 g/a, three weeks after application
In short: as §3

large crabgrass [23] = experiment: as above; settings: dose 6.3 g/a, three weeks after application
In short: as §3

transplanted rice = experiment: Test Example 1: preemergence treatment under submerged conditions, effect on crop; settings: dose 2.52 g/a
In short: (§4)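 Scoring 0 (<5% mortality) to 5 (≥90%) was done three weeks after preemergence application to the water surface of submerged (4 cm) alluvial soil, doses given as g per are. Weeds were seeded and 2.5-leaf rice transplanted on the treatment day; greenhouse at 25–30 °C.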

barnyardgrass [24] = experiment: Test Example 1: herbicidal effects in preemergence treatment under submerged conditions; settings: dose 2.52 g/a
In short: as §4

ducksalad [25] = experiment: as above; settings: dose 2.52 g/a
In short: as §4

bulrush [26] = experiment: as above; settings: dose 2.52 g/a
In short: as §4

Row | Compound | A: barnyardgrass, herbicidal effect (evaluation scale 0-5) (barnyardgrass [1]) | C: ducksalad, herbicidal effect (evaluation scale 0-5) (ducksalad [2]) | B: bulrush, herbicidal effect (evaluation scale 0-5) (bulrush [3]) | E: giant foxtail, herbicidal effect (evaluation scale 0-5) (giant foxtail [4]) | A: barnyardgrass, herbicidal effect (evaluation scale 0-5) (barnyardgrass [5]) | K: redroot pigweed, herbicidal effect (evaluation scale 0-5) (redroot pigweed [6]) | H: Italian ryegrass, herbicidal effect (evaluation scale 0-5) (Italian ryegrass [7]) | G: water foxtail, herbicidal effect (evaluation scale 0-5) (water foxtail [8]) | J: common ragweed, herbicidal effect (evaluation scale 0-5) (common ragweed [9]) | L: common lambsquater, herbicidal effect (evaluation scale 0-5) (common lambsquater [10]) | F: wild oat, herbicidal effect (evaluation scale 0-5) (wild oat [11]) | N: common chickweed, herbicidal effect (evaluation scale 0-5) (common chickweed [12]) | D: large crabgrass, herbicidal effect (evaluation scale 0-5) (large crabgrass [13]) | E: giant foxtail, herbicidal effect (giant foxtail [14]) | A: barnyardgrass, herbicidal effect (barnyardgrass [15]) | K: redroot pigweed, herbicidal effect (redroot pigweed [16]) | H: Italian ryegrass, herbicidal effect (Italian ryegrass [17]) | G: water foxtail, herbicidal effect (water foxtail [18]) | J: common ragweed, herbicidal effect (common ragweed [19]) | L: common lambsquater, herbicidal effect (common lambsquater [20]) | other results
1 | CC1CC(=O)N(Cc2ccccc2NS(=O)(=O)C(F)(F)F)CO1 (centres unmarked) [II-4] | 5 (mortality of 90% or above (nearly complete death)) | 5 (mortality of 90% or above (nearly complete death)) | 5 (mortality of 90% or above (nearly complete death)) | 5 (mortality of 90% or above (nearly complete death)) | 5 (mortality of 90% or above (nearly complete death)) | 0 (mortality of less than 5% (almost ineffective)) | 3 (mortality of at least 40% and less than 70%) | 5 (mortality of 90% or above (nearly complete death)) | 4 (mortality of at least 70% and less than 90%) | 4 (mortality of at least 70% and less than 90%) | 0 (mortality of less than 5% (almost ineffective)) | 5 (mortality of 90% or above (nearly complete death)) | 5 (mortality of 90% or above (nearly complete death)) | 5 (mortality of 90% or above (nearly complete death)) | 5 (mortality of 90% or above (nearly complete death)) | 0 (mortality of less than 5% (almost ineffective)) | 3 (mortality of at least 40% and less than 70%) | 5 (mortality of 90% or above (nearly complete death)) | 5 (mortality of 90% or above (nearly complete death)) | 3 (mortality of at least 40% and less than 70%) | F: wild oat, herbicidal effect (wild oat [21]): 0 (mortality of less than 5% (almost ineffective)); N: common chickweed, herbicidal effect (common chickweed [22]): 3 (mortality of at least 40% and less than 70%); O: beadstraw, herbicidal effect (beadstraw): 4 (mortality of at least 70% and less than 90%); D: large crabgrass, herbicidal effect (large crabgrass [23]): 5 (mortality of 90% or above (nearly complete death)); a: transplanted rice, effect on crop (evaluation scale 0-5) (transplanted rice): 0 (mortality of less than 5% (almost ineffective)); A: barnyardgrass, herbicidal effect (evaluation scale 0-5) (barnyardgrass [24]): 5 (mortality of 90% or above (nearly complete death)); C: ducksalad, herbicidal effect (evaluation scale 0-5) (ducksalad [25]): 5 (mortality of 90% or above (nearly complete death)); B: bulrush, herbicidal effect (evaluation scale 0-5) (bulrush [26]): 5 (mortality of 90% or above (nearly complete death))
2 | CC(C)COC(=O)N(c1ccccc1CN1COC(C)(C)CC1=O)S(=O)(=O)C(F)(F)F [II-26] | 5 (mortality of 90% or above (nearly complete death)) | 5 (mortality of 90% or above (nearly complete death)) | 5 (mortality of 90% or above (nearly complete death)) | 4 (mortality of at least 70% and less than 90%) | 5 (mortality of 90% or above (nearly complete death)) | 0 (mortality of less than 5% (almost ineffective)) | 3 (mortality of at least 40% and less than 70%) | 5 (mortality of 90% or above (nearly complete death)) | 5 (mortality of 90% or above (nearly complete death)) | 0 (mortality of less than 5% (almost ineffective)) | 0 (mortality of less than 5% (almost ineffective)) | 2 (mortality of at least 20% and less than 40%) | 5 (mortality of 90% or above (nearly complete death)) | 4 (mortality of at least 70% and less than 90%) | 4 (mortality of at least 70% and less than 90%) | 0 (mortality of less than 5% (almost ineffective)) | 3 (mortality of at least 40% and less than 70%) | 5 (mortality of 90% or above (nearly complete death)) | 5 (mortality of 90% or above (nearly complete death)) | 0 (mortality of less than 5% (almost ineffective)) | F: wild oat, herbicidal effect (wild oat [21]): 0 (mortality of less than 5% (almost ineffective)); N: common chickweed, herbicidal effect (common chickweed [22]): 3 (mortality of at least 40% and less than 70%); O: beadstraw, herbicidal effect (beadstraw): 4 (mortality of at least 70% and less than 90%); D: large crabgrass, herbicidal effect (large crabgrass [23]): 4 (mortality of at least 70% and less than 90%); a: transplanted rice, effect on crop (evaluation scale 0-5) (transplanted rice): 0 (mortality of less than 5% (almost ineffective)); A: barnyardgrass, herbicidal effect (evaluation scale 0-5) (barnyardgrass [24]): 5 (mortality of 90% or above (nearly complete death)); C: ducksalad, herbicidal effect (evaluation scale 0-5) (ducksalad [25]): 5 (mortality of 90% or above (nearly complete death)); B: bulrush, herbicidal effect (evaluation scale 0-5) (bulrush [26]): 5 (mortality of 90% or above (nearly complete death))

From patent US20120029187A1, “HALOALKYLSULFONANILIDE DERIVATIVE” (Nissan Chemical Industries, Ltd., priority 2009, published 2012)
